{"source": "patent US11883526B2", "about": "(priority 2019, dated 2024)", "key": {"[1]": {"system": "subjects with MDD at imminent risk for suicide", "assay": "MADRS total score, sustained response ([…]2001)", "format": "in vivo, human", "conditions": "84 mg; for MADRS total score change from baseline, Diff. of LS Means (minus Placebo): ANCOVA LOCF", "from_the_text": "Primary efficacy variable/Primary Time point: Change from baseline (Day 1, predose) to Day 1, 4-hours postdose in MADRS total score. The MADRS consists of 10 items that cover all of the core depressive symptoms, with each item scoring from 0 (item is not present or is normal) to 6 (severe or continuous presence of the symptom). A higher score represents a more severe condition.\nThe primary efficacy endpoint is the change in MADRS total score from baseline to Day 1: 4-hours postdose. MADRS total scores range from 0 to 60. […] As this is a phase 2a proof-of-concept study, statistical significance is based on a two-sided alpha level of 0.20. All p-values presented in this document are two-sided.\nSustained response is defined as at least 50% reduction from baseline in MADRS total score with onset on Day 1: 4 hours postdose that is maintained through the end of the double-blind phase (Day 25). Four subjects in the esketamine 84 mg group and 2 subjects in the placebo group had sustained response throughout the double-blind phase."}, "[2]": {"system": "patients with treatment-resistant depression (TRD)", "assay": "CADSS (Example 7)", "design": "species or system human", "conditions": "in vivo", "method": "Adverse events were monitored throughout the study. Other safety assessments (i.e., laboratory tests, vital signs, physical examination) were performed at pre-specified time points. Vital signs, the Clinician Administered Dissociative States Scale (CADSS; Bremner, “Measurement of dissociative states with the clinician-administered dissociative states scale (CADSS)”, J. Traumatic Stress, 1998, 11(1):125-136), and the 4-item positive symptom subscale from the Brief Psychiatric Rating Scale (BPRS; Overall, “The Brief Psychiatric Rating Scale. Psychological Reports”, 1962, 10:799-812) were assessed pre-dose, at 40 minutes, and 2 hours post-dose."}, "[3]": {"system": "elderly subjects with TRD", "conditions": "US patients aged ≥65 years", "description": "Safety evaluation included reported adverse events, clinical laboratory tests, vital sign measurements, physical examinations, electrocardiograms and nasal examinations. Safety was assessed via treatment emergent AEs (TEAEs)."}, "[4]": {"system": "elderly subjects with TRD", "conditions": "double-blind phase", "description": "The Clinician Administered Dissociative States Scale (CADSS) was measured prior to the start of each dose, at 40 minutes, and 1.5 hours postdose."}, "[5]": {"assay": "Pharmacokinetics assembled from 14 Phase 1 studies (Example 10)", "conditions": "for Terminal t1/2 / AUClast / Cmax / tmax: young adult subjects; for Terminal t1/2: range across studies; for AUClast / Cmax: range of mean values; for tmax: range of median values", "method": "The data herein was assembled from 14 Phase 1 studies; each Phase 1 study was performed similarly to the study outlined in Example 9 in which the PK of esketamine was assessed."}, "[6]": {"system": "patients with treatment-resistant depression (TRD)", "assay": "MADRS total score, response, remission (phase 2 dose-response study, Example 7)", "format": "in vivo, human", "conditions": "for MADRS total score, LS mean difference vs placebo (all dose groups): 28, 56, 84 mg; for Remitters, % / Responders, %: study period endpoint", "method": "Efficacy was assessed with the Montgomery-Asberg Depression Rating Scale (MADRS; Montgomery, “A new depression scale designed to be sensitive to change”, Br. J. Psychiatry, 1979, 134:382-389; Williams, “Development and reliability of a structured interview guide for the Montgomery Asberg Depression Rating Scale (SIGMA)”, Br. J. Psychiatry, 2008, 192(1):52-58) on days 1 (pre-dose and 2 hour post-dose), 2, 8 (pre-dose), 9, and 15, using the structured interview guide (SIGMA). See, Williams 2008.\nEfficacy data were analyzed in intent-to-treat (ITT) analysis sets for each period and phase. The ITT analysis sets included all participants who received at least 1 dose of study medication during that period or phase and had baseline and at least one post-baseline MADRS total score within that period or phase.\nThe primary efficacy endpoint—change from baseline (pre-dose, day 1 in each period) to endpoint (day 8 in each period) in MADRS total score—was analyzed using the analysis of covariance (ANCOVA) model. For Period 1, the model included treatment and country as factors, and baseline MADRS total score as covariate. For Period 2, the model included treatment and country as factors, Period 2 baseline QIDS-SR16 score (moderate or severe), and Period 2 baseline MADRS total score as a continuous covariate.\nGiven the consistency between Periods 1 and 2 results (Chi 2016), esketamine dose groups were compared to placebo using a combined test on the weighted test statistics for each period in the double-blind treatment phase. A dose-response analysis on primary efficacy endpoint was performed using data combined from both periods. The Multiple Comparison Procedure-Modelling (MCP-Mod) methodology was performed (Williams 2008; Bretz, “Combining multiple comparisons and modeling techniques in dose-response studies”, Biometrics, 2005, 61:738-748)."}, "glutamate NMDA receptor": {"system": "glutamate NMDA receptor", "conditions": "in vitro; cited from earlier work"}, "[7]": {"system": "subjects with MDD at imminent risk for suicide", "assay": "Beck Scale for Suicidal Ideation, BSS ([…]2001)", "format": "in vivo, human", "conditions": "84 mg; for BSS total score change from baseline, Diff. of LS Means (minus Placebo): ANCOVA LOCF, ITT", "method": "The BSS is a 21-item self-reported instrument to detect and measure the severity of suicidal ideation in adults and adolescents aged 17 years and older. The BSS total score represents the severity of suicide ideation, and it is calculated by summing the ratings of the first 19 items; the total score ranges from 0 to 38, with a higher score representing greater suicide ideation. Increasing scores reflect increases in suicidal risk."}, "[8]": {"system": "elderly subjects with TRD", "format": "in vivo, human", "conditions": "each dosing day", "from_the_text": "The Modified Observer's Assessment of Alertness/Sedation (MOAA/S) was used to measure treatment-emergent sedation with correlation to levels of sedation defined by the American Society of Anesthesiologists (ASA) continuum. The MOAA/S scores range from 0 (No response to painful stimulus; corresponds to ASA continuum for general anesthesia) to 5 (Readily responds to name spoken in normal tone [awake]; corresponds to ASA continuum for minimal sedation). The proportion of subjects with sedation was <4% for the esketamine group for each dosing day."}}, "data": [{"smiles": "CN[C@]1(c2ccccc2Cl)CCCCC1=O", "note": "[esketamine, (S)-2-(2-chlorophenyl)-2-(methylamino)cyclohexanone]", "values": [{"measurement": "subjects with sustained response throughout the double-blind phase", "setting": "[1]; ≥50% MADRS reduction from Day 1 4 h through Day 25", "result": "Four"}, {"measurement": "MADRS total score change from baseline, Diff. of LS Means (minus Placebo)", "setting": "[1]; Day 1(DB): 4 H, ITT", "result": "−5.3"}, {"measurement": "MADRS total score change from baseline, Diff. of LS Means (minus Placebo)", "setting": "[1]; Day 2(DB), ITT", "result": "−7.2"}, {"measurement": "MADRS total score change from baseline, Diff. of LS Means (minus Placebo)", "setting": "[1]; End Point(DB), ITT", "result": "−4.5"}, {"measurement": "Day 25 sustained response (MADRS) No: no. of subjects", "setting": "[1]; ITT", "result": 30}, {"measurement": "Withdrawn from double-blind phase: Lack of Efficacy, percent of subjects", "setting": "[1]; all randomized analysis set", "result": "(2.8%)"}, {"measurement": "Withdrawn from double-blind phase: Lack of Efficacy, number of subjects", "setting": "[1]; all randomized analysis set, N = 36", "result": 1}, {"measurement": "Day 25 sustained response (MADRS) Yes: no. of subjects", "setting": "[1]; at least 50 percent reduction from Day 1 through Day 25, ITT", "result": 4}, {"measurement": "perceptual changes/dissociative symptoms (CADSS) peaked around", "setting": "[2]", "result": "30 to 40", "unit": "min"}, {"measurement": "perceptual changes/dissociative symptoms (CADSS) resolved by", "setting": "[2]", "result": "≤ 2", "unit": "h"}, {"measurement": "patients who withdrew the nasal spray", "setting": "[3]", "result": 2, "unit": "n"}, {"measurement": "dissociative and perceptual change symptoms (CADSS) resolved by", "setting": "[4]", "result": "≤ 1.5", "unit": "hours postdose"}, {"measurement": "mean terminal t1/2", "setting": "[5]; nasal administration", "result": "7 to 12", "unit": "h"}, {"measurement": "Terminal t1/2", "setting": "[5]; single dose nasal spray 28 mg", "result": "7.25 to 16.5", "unit": "h"}, {"measurement": "AUClast", "setting": "[5]; single dose nasal spray 28 mg", "result": "128 to 183", "unit": "ng·h/mL"}, {"measurement": "Cmax", "setting": "[5]; single dose nasal spray 28 mg", "result": "49.7 to 70.5", "unit": "ng/mL"}, {"measurement": "tmax", "setting": "[5]; single dose nasal spray 28 mg", "result": "0.33 to 0.67", "unit": "h"}, {"measurement": "Terminal t1/2", "setting": "[5]; single dose nasal spray 56 mg", "result": "6.8 to 9.83", "unit": "h"}, {"measurement": "AUClast", "setting": "[5]; single dose nasal spray 56 mg", "result": "216 to 317", "unit": "ng·h/mL"}, {"measurement": "Cmax", "setting": "[5]; single dose nasal spray 56 mg", "result": "71.8 to 117", "unit": "ng/mL"}, {"measurement": "tmax", "setting": "[5]; single dose nasal spray 56 mg", "result": "0.50 to 0.77", "unit": "h"}, {"measurement": "Terminal t1/2", "setting": "[5]; single dose nasal spray 84 mg", "result": "6.6 to 12.0", "unit": "h"}, {"measurement": "AUClast", "setting": "[5]; single dose nasal spray 84 mg", "result": "310 to 489", "unit": "ng·h/mL"}, {"measurement": "Cmax", "setting": "[5]; single dose nasal spray 84 mg", "result": "95.0 to 164", "unit": "ng/mL"}, {"measurement": "tmax", "setting": "[5]; single dose nasal spray 84 mg", "result": "0.53 to 0.83", "unit": "h"}, {"measurement": "maximum mean increase in diastolic BP", "setting": "adult subjects with TRD; across all dosing days", "result": 8.1}, {"measurement": "time blood pressure returned to normal range", "setting": "adult subjects with TRD; double-blind phase", "result": 90, "unit": "min"}, {"measurement": "time of peak of transient blood pressure increase post dose", "setting": "adult subjects with TRD; double-blind phase", "result": "approximately 40 minutes"}, {"measurement": "proportion of responders (≥50% improvement in MADRS)", "setting": "[6]; 84 mg, Period 2 endpoint", "result": 50.0, "unit": "%"}, {"measurement": "MADRS total score, LS mean difference vs placebo (all dose groups)", "setting": "[6]; Period 1, baseline to day 8", "result": "−5.0 to −10.5"}, {"measurement": "Remitters, %", "setting": "[6]; Period 1, 84 mg", "result": "(25.0) %"}, {"measurement": "Responders, %", "setting": "[6]; Period 1, 84 mg", "result": "(41.7) %"}, {"measurement": "MADRS total score, LS mean difference vs placebo (all dose groups)", "setting": "[6]; Period 2, day 8 to day 15", "result": "−3.1 to −6.9"}, {"measurement": "MADRS total score, LS mean change", "setting": "[6]; Period 2, change at study period endpoint, 56 mg", "result": "−8.9"}, {"measurement": "Remitters, %", "setting": "[6]; Period 2, 28 mg", "result": "(12.5) %"}, {"measurement": "Responders, %", "setting": "[6]; Period 2, 28 mg", "result": "(12.5) %"}, {"measurement": "Remitters, %", "setting": "[6]; Period 2, 84 mg", "result": "(20.0) %"}, {"measurement": "affinity for the glutamate NMDA receptor relative to R-ketamine", "setting": "glutamate NMDA receptor", "result": "3 to 4", "unit": "fold"}, {"measurement": "change in BSS total score vs placebo", "setting": "[7]; Day 1 4-hours postdose, Day 2 (DB), End Point (DB)", "result": "no statistically significant differences"}, {"measurement": "BSS total score change from baseline, Diff. of LS Means (minus Placebo)", "setting": "[7]; Day 1(DB): 4 H", "result": "−2.3"}, {"measurement": "BSS total score change from baseline, Diff. of LS Means (minus Placebo)", "setting": "[7]; Day 2(DB)", "result": "−1.9"}, {"measurement": "BSS total score change from baseline, Diff. of LS Means (minus Placebo)", "setting": "[7]; End Point(DB)", "result": "−1.7"}, {"measurement": "proportion of subjects with sedation (post dose MOAA/S score ≤3)", "setting": "[8]", "result": "< 4", "unit": "%"}]}]}
